According to ChEMBL document CHEMBL1201862, “PubChem BioAssay data set” (2004):
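Where inhibition never reached the appropriate level, the endpoint shown equals the highest concentration tested. Otherwise, values were interpolated linearly from a five-concentration, 48-hour dose response in 96-well plates. At the GI50, growth is halved.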 The source made the active and inactive calls. No stated cut-off is given here; in the data, active = GI50 up to about 1.1 µM and inactive = higher.

What was measured:
Test in all cases: NCI tumour cell line growth inhibition, 48 h
[1] = system: 786-0
[2] = system: A549
[3] = system: ACHN
[4] = system: CCRF-CEM
[5] = system: EKVX
[6] = system: HL-60
[7] = system: IGROV-1
[8] = system: MDA-MB-435
[9] = system: MDA-N
[10] = system: NCI-H23
[11] = system: NCI-H460
[12] = system: NCI-H522
[13] = system: OVCAR-5
[14] = system: SF-295
[15] = system: SF-539
[16] = system: SNB-19
[17] = system: U-251
[18] = system: UACC-62
[19] = system: UO-31
[20] = system: SK-MEL-5

SMILES	GI50 [1]	GI50 [2]	GI50 [3]	GI50 [4]	GI50 [5]	GI50 [6]	GI50 [7]	GI50 [8]	GI50 [9]	GI50 [10]	GI50 [11]	GI50 [12]	GI50 [13]	GI50 [14]	GI50 [15]	GI50 [16]	GI50 [17]	GI50 [18]	GI50 [19]	GI50 [20]
O=C1c2cccnc2S(=O)(=O)N1c1ccc(Oc2ccccc2)cc1	> 100 µM (inactive)	91.8 µM (inactive)	> 100 µM (inactive)	90.4 µM (inactive)	> 100 µM (inactive)	> 100 µM (inactive)	> 100 µM (inactive)	> 100 µM (inactive)	> 100 µM (inactive)	> 100 µM (inactive)	> 100 µM (inactive)	> 100 µM (inactive)	> 100 µM (inactive)	> 100 µM (inactive)	> 100 µM (inactive)	> 100 µM (inactive)	> 100 µM (inactive)	> 100 µM (inactive)	> 100 µM (inactive)	
CC1CC(C#N)=C2NCCN2C1=O (centres undefined)	> 100 µM (inactive)	> 100 µM (inactive)		> 100 µM (inactive)	> 100 µM (inactive)	> 100 µM (inactive)	> 100 µM (inactive)	18.3 µM (inactive)	16.4 µM (inactive)	> 100 µM (inactive)	> 100 µM (inactive)	95.1 µM (inactive)		> 100 µM (inactive)	> 100 µM (inactive)	> 100 µM (inactive)	> 100 µM (inactive)	> 10 µM (inactive)	> 100 µM (inactive)	15.2 µM (inactive)
COC(C)(C)C1=CCC(C)CC1 (centres undefined)	> 100 µM (inactive)	> 100 µM (inactive)	> 100 µM (inactive)		> 100 µM (inactive)	> 10 µM (inactive)	> 100 µM (inactive)	> 100 µM (inactive)	> 100 µM (inactive)	> 100 µM (inactive)	> 100 µM (inactive)	> 100 µM (inactive)	> 100 µM (inactive)	> 100 µM (inactive)	> 100 µM (inactive)	> 100 µM (inactive)	> 100 µM (inactive)	> 100 µM (inactive)	> 100 µM (inactive)	> 100 µM (inactive)
N#Cc1c(-c2ccccc2)cc(Nc2ccc(F)cc2)n2c1nc1ccccc12	2.78 µM (inactive)	2.28 µM (inactive)	2.7 µM (inactive)		2.09 µM (inactive)	> 100 µM (inactive)	4.12 µM (inactive)	3.11 µM (inactive)	2.28 µM (inactive)	3.18 µM (inactive)	2.36 µM (inactive)	1.95 µM (inactive)	3.16 µM (inactive)	2.22 µM (inactive)	3.26 µM (inactive)	3.14 µM (inactive)	2.06 µM (inactive)	1.84 µM (inactive)	1.73 µM (inactive)	1.24 µM (inactive)
COC(=O)c1c(O)ccc2c1c1c(n2-c2ccc(OC)cc2)C(=O)c2ccccc2C1=O	15.7 µM (inactive)	10.1 µM (inactive)	12.8 µM (inactive)	15.2 µM (inactive)	16.6 µM (inactive)	> 100 µM (inactive)	16.6 µM (inactive)	66.8 µM (inactive)	57.1 µM (inactive)	36.7 µM (inactive)	5.04 µM (inactive)	15.1 µM (inactive)	30.7 µM (inactive)	18.7 µM (inactive)	15.3 µM (inactive)	20.6 µM (inactive)	13 µM (inactive)		11.9 µM (inactive)	44.3 µM (inactive)
CC1CC/C(=C\c2ccc(Cl)cc2)c2nc(N)c(C#N)c(-c3ccc(Cl)cc3)c21 (centres undefined)	> 100 µM (inactive)	34.8 µM (inactive)	42.2 µM (inactive)	23.5 µM (inactive)	80.7 µM (inactive)	3.07 µM (inactive)	62.8 µM (inactive)	23.9 µM (inactive)	88.1 µM (inactive)	30.3 µM (inactive)		30.3 µM (inactive)	> 100 µM (inactive)	44.1 µM (inactive)	48.8 µM (inactive)	29.9 µM (inactive)	17.7 µM (inactive)	20.5 µM (inactive)	27.7 µM (inactive)	41.8 µM (inactive)
O=C1/C(=C/c2ccccc2)N=C(c2ccccc2)N1C1Nc2cc3c(cc2S1)NC(N1C(=O)/C(=C/c2ccccc2)N=C1c1ccccc1)S3 (centres undefined)	53.6 µM (inactive)		29.5 µM (inactive)	31.7 µM (inactive)	95.7 µM (inactive)	3.63 µM (inactive)	6.98 µM (inactive)	13.6 µM (inactive)	8.61 µM (inactive)	4.9 µM (inactive)	17.9 µM (inactive)	0.0258 µM (active)	64 µM (inactive)	> 100 µM (inactive)	> 100 µM (inactive)		4.72 µM (inactive)		47.8 µM (inactive)	30.3 µM (inactive)
CC[C@@H]1CC[C@@H]2[C@H](CC[C@]3(C)[C@@H](O[N+](=O)[O-])CC[C@@H]23)[C@H]1C(C)=O	50.7 µM (inactive)	28.4 µM (inactive)	28.4 µM (inactive)	32.4 µM (inactive)	16.8 µM (inactive)	13.5 µM (inactive)	34.7 µM (inactive)	32.8 µM (inactive)	28.9 µM (inactive)	28.1 µM (inactive)	27.4 µM (inactive)	28.8 µM (inactive)	64.3 µM (inactive)	42.6 µM (inactive)	38.3 µM (inactive)	56.5 µM (inactive)	32.4 µM (inactive)		24.6 µM (inactive)	19.7 µM (inactive)
COc1ccc(OC)c(CNc2ccc(C(=O)O)cc2)c1	> 100 µM (inactive)	> 100 µM (inactive)	> 100 µM (inactive)	> 100 µM (inactive)	> 100 µM (inactive)	> 100 µM (inactive)	> 100 µM (inactive)	> 100 µM (inactive)	> 100 µM (inactive)	> 100 µM (inactive)		> 100 µM (inactive)	> 100 µM (inactive)		> 100 µM (inactive)	> 100 µM (inactive)	> 100 µM (inactive)	> 100 µM (inactive)	> 100 µM (inactive)	> 100 µM (inactive)
CCC1=C(C)C(=O)N/C1=C\c1[nH]c(C)c([C@H](C)CCN)c1C	14.7 µM (inactive)	16.1 µM (inactive)	18.6 µM (inactive)	23 µM (inactive)	14.4 µM (inactive)	10 µM (inactive)	17 µM (inactive)	15.3 µM (inactive)	15.3 µM (inactive)	13.3 µM (inactive)	20.3 µM (inactive)	11.6 µM (inactive)	17.5 µM (inactive)	16.5 µM (inactive)	0.0944 µM (active)		15.1 µM (inactive)	17.3 µM (inactive)	15.8 µM (inactive)	17.2 µM (inactive)
CN(C)c1ccc(/C=N\NC(=O)Nc2cccc3ccccc23)cc1	5.74 µM (inactive)	9.57 µM (inactive)	6.98 µM (inactive)	4.26 µM (inactive)	0.215 µM (active)	2.03 µM (inactive)	9.91 µM (inactive)	0.927 µM (active)	1.53 µM (inactive)	4.75 µM (inactive)	4.31 µM (inactive)	2.08 µM (inactive)	19.4 µM (inactive)		4.4 µM (inactive)	2.46 µM (inactive)	5.82 µM (inactive)		13.2 µM (inactive)	3.97 µM (inactive)
